This passage reports ED50, minimal effective dose and TD50 results from patent US4820721A, “1-aryl-5-(2-oxo-1-pyrrolidinyl)-1,2,3-triazolines as novel anticonvulsants” (priority 1988, dated 1989).

Data set [1] can be described thus: maximal electroshock seizure (MES) test. It counts as in vivo. The conditions noted are these: Mus musculus; Phase II; male albino mice. On the procedure: (§1) The anticonvulsant activity was evaluated by subjecting male albino mice to the MES test and the scMet test. The maximal electroshock seizure test (MES) was performed according to the method of Swinyard et al (J. Pharmacol. Exp. Ther. 106, 319, 1952), and abolition of the hind limb tonic extensor component of the maximal seizures was defined as protection. In the subcutaneous pentylenetetrazole seizure threshold test (scMet), 85 mg/kg of pentylenetetrazol was administered as a 0.5% solution subcutaneously in the posterior midline, and failure to observe even a threshold seizure (a single episode of clonic spasms of at least 5-s duration) was defined as protection.

A short description of data set [2]: subcutaneous pentylenetetrazole (Metrazole) seizure threshold (scMet) test. Format: in vivo. The settings on record: Mus musculus, sc; Phase II; male albino mice; 85 mg/kg pentylenetetrazol s.c. On the procedure:
as §1

A short description of data set [3]: Phase I anticonvulsant activity (MES and scMet tests). It counts as in vivo. The settings on record: Mus musculus, male albino mice, read-out: Activity, Phase I (active dose). On the procedure:
They afford protection in both the scMet and MES seizure models. The 1-p-chlorophenyl-5-(2-oxo-1-pyrrolidinyl)-1,2,3-triazoline is active in the 100 mg/kg dose and the 1-phenyl-5-(2-oxo-1-pyrrolidinyl)-1,2,3-triazoline is active in the 300 mg/kg dose.
as §1

A further data set in a line: in vivo. More on the design: species or system mice. The settings on record: mouse. On the procedure:
Neurotoxicity was evaluated by the rotorod ataxia test (Dunham et al, J. Am. Pharm. Assoc. Sci. Ed., 46, 208, 1957). The animal was placed on a wooden rod of 2.8-cm diameter rotating at 6 rpm. Normal mice can remain on a rod rotating at this speed indefinitely.

In the case of `O=C1CCCN1C1CN=NN1c1ccc(Cl)cc1` (centres unmarked) [1-p-chlorophenyl-5-(2-oxo-1-pyrrolidinyl)-1,2,3-triazoline], the values for the ED50 in data set [1] and in data set [2] were 116 mg/kg and 77.2 mg/kg, respectively. For the same compound, the minimal effective dose in data set [3] was found to be 100 mg/kg. For the same compound, in the data set “in vivo”, the TD50 is 249 mg/kg.
`O=C1CCCN1C1CN=NN1c1ccccc1` (centres unmarked) [1-phenyl-5-(2-oxo-1-pyrrolidinyl)-1,2,3-triazoline]: in data set [3], the minimal effective dose is 300 mg/kg.
